Experiments:
[1] = Particle size analysis using the Aerosizer/Aerodisperser system; assay type: physicochemical; details: particle size distribution
Procedure: Particle size analysis of the product was carried out using the Aerosizer/Aerodisperser system (API, USA).

Crystallinity by XRPD = assay type: physicochemical; details: XRPD pattern
[2] = SEM, in comparison

SMILES: CC(C)Cc1ccc(C(C)C(=O)O)cc1 (centres unmarked) [Example 1c, ibuprofen]
- SIZE, 5% UNDER [1]: 3.762 micron
- SIZE, 10% UNDER [1]: 4.462 micron
- SIZE, 15% UNDER [1]: 5.018 micron
- SIZE, 20% UNDER [1]: 5.518 micron
- SIZE, 25% UNDER [1]: 5.999 micron
- SIZE, 30% UNDER [1]: 6.479 micron
- SIZE, 35% UNDER [1]: 6.966 micron
- SIZE, 40% UNDER [1]: 7.471 micron
- SIZE, 45% UNDER [1]: 8.004 micron
- SIZE, 50% UNDER [1]: 8.572 micron
- SIZE, 55% UNDER [1]: 9.186 micron
- SIZE, 60% UNDER [1]: 9.849 micron
- SIZE, 65% UNDER [1]: 10.55 micron
- SIZE, 70% UNDER [1]: 11.28 micron
- SIZE, 75% UNDER [1]: 12.06 micron
- SIZE, 80% UNDER [1]: 12.92 micron
- SIZE, 85% UNDER [1]: 13.88 micron
- SIZE, 90% UNDER [1]: 14.96 micron
- SIZE, 95% UNDER [1]: 16.35 micron

SMILES: CC(C(=O)O)c1cccc(C(=O)c2ccccc2)c1 (centres unmarked) [Example 4, ketoprofen]
- crystallinity (Crystallinity by XRPD): confirmed its crystallinity

SMILES: CC(C)Cc1ccc(C(C)C(=O)O)cc1 (centres unmarked) [Example 1b, ibuprofen]
- SIZE, 5% UNDER [1]: 5.920 micron
- SIZE, 10% UNDER [1]: 7.411 micron
- SIZE, 15% UNDER [1]: 8.631 micron
- SIZE, 20% UNDER [1]: 9.720 micron
- SIZE, 25% UNDER [1]: 10.75 micron
- SIZE, 30% UNDER [1]: 11.72 micron
- SIZE, 35% UNDER [1]: 12.66 micron
- SIZE, 40% UNDER [1]: 13.56 micron
- SIZE, 45% UNDER [1]: 14.43 micron
- SIZE, 50% UNDER [1]: 15.30 micron
- SIZE, 55% UNDER [1]: 16.18 micron
- SIZE, 60% UNDER [1]: 17.07 micron
- SIZE, 65% UNDER [1]: 17.99 micron
- SIZE, 70% UNDER [1]: 18.94 micron
- SIZE, 75% UNDER [1]: 19.95 micron
- SIZE, 80% UNDER [1]: 21.05 micron
- SIZE, 85% UNDER [1]: 22.25 micron
- SIZE, 90% UNDER [1]: 23.67 micron
- SIZE, 95% UNDER [1]: 25.84 micron

SMILES: O=C(O)c1cccnc1 [Example 5b, nicotinic acid]
- particle size and morphology [2]: comparable particle size and morphology to that of the product of Example 5a

SMILES: O=C(O)c1ccccc1O [Example 3b, salicylic acid]
- crystallinity (Crystallinity by XRPD): crystalline in form

SMILES: O=C(O)c1ccccc1O [Example 3a, salicylic acid]
- crystallinity (Crystallinity by XRPD): crystalline

SMILES: CC(C)Cc1ccc(C(C)C(=O)O)cc1 (centres unmarked) [Example 2, ibuprofen]
- SIZE, 5% UNDER [1]: 5.815 micron
- SIZE, 10% UNDER [1]: 7.327 micron
- SIZE, 15% UNDER [1]: 8.537 micron
- SIZE, 20% UNDER [1]: 9.612 micron
- SIZE, 25% UNDER [1]: 10.62 micron
- SIZE, 30% UNDER [1]: 11.57 micron
- SIZE, 35% UNDER [1]: 12.49 micron
- SIZE, 40% UNDER [1]: 13.38 micron
- SIZE, 45% UNDER [1]: 14.26 micron
- SIZE, 50% UNDER [1]: 15.17 micron
- SIZE, 55% UNDER [1]: 16.10 micron
- SIZE, 60% UNDER [1]: 17.06 micron
- SIZE, 65% UNDER [1]: 18.06 micron
- SIZE, 70% UNDER [1]: 19.10 micron
- SIZE, 75% UNDER [1]: 20.20 micron
- SIZE, 80% UNDER [1]: 21.41 micron
- SIZE, 85% UNDER [1]: 22.79 micron
- SIZE, 90% UNDER [1]: 24.42 micron
- SIZE, 95% UNDER [1]: 26.78 micron

SMILES: CC(C)Cc1ccc(C(C)C(=O)O)cc1 (centres unmarked) [Example 1a, ibuprofen]
- SIZE, 5% UNDER [1]: 9.241 micron
- SIZE, 10% UNDER [1]: 11.68 micron
- SIZE, 15% UNDER [1]: 13.57 micron
- SIZE, 20% UNDER [1]: 15.21 micron
- SIZE, 25% UNDER [1]: 16.74 micron
- SIZE, 30% UNDER [1]: 18.21 micron
- SIZE, 35% UNDER [1]: 19.62 micron
- SIZE, 40% UNDER [1]: 20.99 micron
- SIZE, 45% UNDER [1]: 22.30 micron
- SIZE, 50% UNDER [1]: 23.58 micron
- SIZE, 55% UNDER [1]: 24.87 micron
- SIZE, 60% UNDER [1]: 26.16 micron
- SIZE, 65% UNDER [1]: 27.48 micron
- SIZE, 70% UNDER [1]: 28.83 micron
- SIZE, 75% UNDER [1]: 30.25 micron
- SIZE, 80% UNDER [1]: 31.76 micron
- SIZE, 85% UNDER [1]: 33.44 micron
- SIZE, 90% UNDER [1]: 35.44 micron
- SIZE, 95% UNDER [1]: 38.65 micron
